Experimental data as given in patent publication US20230302031A1, “Modulators Of Purinergic Receptors and Related Immune Checkpoint For Treating Acute Respiratory Distress Syndrome” (priority 2020, published 2023).
Like-named read-outs stand apart in the source and are kept apart here.

Experiments:
SARS-CoV-2 [1] = assay type: cell-based; conditions: Vero E6, 72 hours infection, MOI 1-2, indicated concentrations, MTT
ACE2 [2] = assay type: cell-based, African green monkey; conditions: Vero E6, 24 hours; 500 μM UTP, 100 μM Diquafosol, 5 μM Denufosol, 50 μM PPADS, 100 μM OxATP, 100 μM BzATP; FIG. 14A
ACE2 [3] = assay type: cell-based; conditions: ACE2-A549, 24 hours; same concentrations; FIG. 14B
SARS-CoV-2 [4] = experiment: SARS-CoV-2 replication in ACE2-A549 cells (RdRp and E mRNA, Spike expression); assay type: cell-based; conditions: ACE2-A549, 48 hours; 500 μM UTP, 100 μM Diquafosol, 5 μM Denufosol; FIG. 7F-H
SARS-CoV-2 [5] = experiment: SARS-CoV-2 replication in Vero E6 cells (RdRp and E mRNA, quantitative RT-PCR); assay type: cell-based; conditions: 500 μM UTP, 100 μM Diquafosol, 5 μM Denufosol; for amount of RdRp and E mRNA (viral replication): Vero E6, 16 and 24 hours of infection, 50 μM PPADS, 100 μM BzATP, FIG. 2; for replication of SARS-CoV-2 and/or associated cytopathogenic effects: Vero E6, RdRp and E mRNA, Spike-positive cells, viability, FIG. 7D, 7E, 7I-7K, 12A, 12B
Vero E6 cells = conditions: Vero E6, 72 hours, MTT; PPADS and OxATP at 100 μM; BzATP indicated concentrations
SARS-CoV-2 [6] = assay type: cell-based; conditions: FIG. 7K; for intracellular expression of Spike: Vero E6, 24 hours, 50 μM PPADS, 100 μM OxATP, 100 μM BzATP; for ACE2 expression in response to SARS-CoV-2 infection: western blot
ACE2-A549 cells = conditions: ACE2-A549, 72 hours, MTT; PPADS and OxATP at 100 μM; BzATP indicated concentrations
SARS-CoV-2 [7] = assay type: cell-based; conditions: Vero E6, 24 hours, 50 μM PPADS, 100 μM OxATP
[8] = test system: PMA-treated THP1 macrophages; experiment: IL-1β release from LPS+ATP-stimulated PMA-THP1 macrophages (western blot/ELISA); assay type: cell-based, human; conditions: for IL-1β release: 100 μM compound, 10 ng/mL LPS 3 hours + 5 mM ATP 6 hours, FIG. 6E, 6I
Method: (§1) Human THP-1 cells were cultured in RPMI 1640 media, supplemented with 10% FBS and differentiated by treatment for 3 hours with 100 nM phorbol-12-myristate-13-acetate (PMA, Invivogen). After 2 days, macrophage THP-1 cells were stimulated first 3 hours with ultrapure LPS from E. coli (10 ng/ml, LPS) and then stimulated for 6 hours with ATP (5 mM, Sigma) or treated with 50 ng or 20 ng of IFNg during 24 or 12 hours as indicated. Then, supernatants and cells were collected for western blot analysis.
(§2) Cells or supernatant were lysed in appropriated buffer (250 mM NaCl, 0.1% NP-40, 5 mM EDTA, 10 mM Na3VO4, 10 mM NaF, 5 mM DTT, 3 mM Na4P2O7, 1 mM EGTA, 10 mM Glycerol phosphate, 10 mM Tris-Hcl (pH=7.5) and the protease and phosphatase inhibitors (Roche)). Equal amount of supernatant or 10-40 μg of protein extracts were run on 4-12% or 10% SDS-PAGE and transferred at 4° C. onto a nitrocellulose membrane (0.2 Micron). After incubation for 2 hours at room temperature with 5% nonfat milk or BSA (Bovine Serum Albumine) in Tris-buffered saline and 0.1% Tween 20 (TBS-Tween), membranes were incubated with primary antibody at 4° C. overnight. […] The primary antibodies against. […] Western blots shown are representative of at least of three independent experiments.
Plasma serum from P2y2^+/+ and P2y2^−/− mice and supernatants harvested from PMA-stimulated THP1 macrophages that were depleted or not for P2Y2 or NLRP3, and/or stimulated with 10 ng/mL LPS during 3 hours and 5 mM ATP during 6 hours or with 20 ng/mL IFNγ, in presence or in absence of 100 μM Suramin, 100 μM OxATP, 100 μM Kaempferol or 100 μM Diquafosol at indicated times were analyzed using western blot or ELISA for IL-1β (Ebioscience) and IL-10 (BD) according to the manufacturers' instructions.

P2Y2-NLRP3 interaction = target: T1, P2Y2-NLRP3 interaction (Homo sapiens, UniProt P41231); experiment: P2Y2-NLRP3 proximity ligation assay in PMA-primed THP1; assay type: cell-based; conditions: 100 μM, 96 hours; FIG. 10A
T1 construct: Frequency of P2Y2-NLRP3 PLA+ cells detected after treatment of PMA-primed THP1 with 100 μM AR-C118925XX; endogenous in cells; host or cells: PMA-primed THP1 macrophages (ATCC)

[9] = test system: PMA-treated THP1 macrophages; experiment: IRF5 expression in IFNγ-stimulated PMA-THP1 macrophages (western blot); assay type: cell-based, human
Method: as §1, §2
Total cellular proteins were extracted and lysed in appropriated buffer containing 250 mM NaCl, 0.1% NP-40, 5 mM EDTA. 10 mM Na3VO4, 10 mM NaF, 5 mM DTT, 3 mM Na4P2O7, 1 mM EGTA, 10 mM Glycerol phosphate, 10 mM Tris-HCl (pH=7.5) and the protease and phosphatase inhibitors (Roche)). Then, 10-40 μg of protein extracts were run on 4-12% or 12% SDS-PAGE and transferred at 4° C. onto a nitrocellulose membrane (0.2 Micron). After 2 hours saturation at room temperature with 5% nonfat milk or BSA (Bovine Serum Albumin) in Tris-buffered saline and 0.1% Tween 20 (TBS-Tween), nitrocellulose membranes were incubated with primary antibody at 4° C. overnight. […] The primary antibodies against P2Y2 (#APR-010) and P2X7 (#APR-004) were obtained from Alomone laboratories. […]

[10] = test system: Bleomycin-induced lung inflammation; experiment: Mouse model of bleomycin-induced lung inflammation; assay type: in vivo, C57BL/6 mice; conditions: 300 μg intraperitoneally every 3 days

T1 sequence (P41231 whole entry): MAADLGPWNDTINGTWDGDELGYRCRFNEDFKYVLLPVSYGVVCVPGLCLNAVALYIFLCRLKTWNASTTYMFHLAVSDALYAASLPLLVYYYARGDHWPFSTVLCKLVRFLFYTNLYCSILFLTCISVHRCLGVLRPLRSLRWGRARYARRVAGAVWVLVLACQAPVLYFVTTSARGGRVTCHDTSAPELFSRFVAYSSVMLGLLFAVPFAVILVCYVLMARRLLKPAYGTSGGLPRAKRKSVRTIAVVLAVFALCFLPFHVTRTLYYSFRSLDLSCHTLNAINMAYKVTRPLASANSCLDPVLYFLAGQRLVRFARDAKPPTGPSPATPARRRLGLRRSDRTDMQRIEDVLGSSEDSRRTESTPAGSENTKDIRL

| Compound | cytopathogenicity / cytopathogenic effects of SARS-CoV-2 (SARS-CoV-2 [1]) | ACE2 membrane expression (ACE2 [2]) | ACE2 membrane expression (ACE2 [3]) | replication of SARS-CoV-2 and/or associated cytopathogenic effects (SARS-CoV-2 [4]) | amount of RdRp and E mRNA (viral replication) (SARS-CoV-2 [5]) | replication of SARS-CoV-2 and/or associated cytopathogenic effects (SARS-CoV-2 [5]) | viability of uninfected cells (Vero E6 cells) | intracellular expression of Spike (SARS-CoV-2 [6]) | viability of uninfected cells (ACE2-A549 cells) | IL-1β release [8] | ACE2 expression in response to SARS-CoV-2 infection (SARS-CoV-2 [6]) | also measured |
| --- | --- | --- | --- | --- | --- | --- | --- | --- | --- | --- | --- | --- |
| Nc1ccn([C@H]2C[C@H](O)[C@@H](COP(=O)(O)OP(=O)(O)OP(=O)(O)OP(=O)(O)OC[C@H]3O[C@@H](n4ccc(=O)[nH]c4=O)[C@H](O)[C@@H]3O)O2)c(=O)n1 [Denufosol] | exhibited inhibitory effects on cytopathogenicity | did not change | did not change | strongly blocked the replication of SARS-CoV-2 and/or reduced associated cytopathogenic effects | strongly reduced the amount of RdRp and E mRNA | strongly blocked the replication of SARS-CoV-2 and/or reduced associated cytopathogenic effects |  |  |  |  |  |  |
| Cc1nc(N=Nc2ccc(S(=O)(=O)O)cc2S(=O)(=O)O)c(COP(=O)(O)O)c(C=O)c1O [PPADS, pyridoxal-phosphate-6-azopheny-2′,4′-disulfonate] | reduced | did not change | did not change |  | repressed RdRp and E mRNA expression |  | partially affected viability | reduced | partially affected viability |  |  | frequency of Spike-positive cells (SARS-CoV-2 [7]): reduced the frequency of Spike-positive cells |
| Cc1ccc(C(=O)Nc2ccc(S(=O)(=O)O)c3cc(S(=O)(=O)O)cc(S(=O)(=O)O)c23)cc1NC(=O)c1cccc(NC(=O)Nc2cccc(C(=O)Nc3cc(C(=O)Nc4ccc(S(=O)(=O)O)c5cc(S(=O)(=O)O)cc(S(=O)(=O)O)c45)ccc3C)c2)c1 [Suramin] |  |  |  |  |  |  |  |  |  | increased IL-1β release |  |  |
| Cc1ccc2c(c1)C=Cc1cc(C)ccc1C2c1cn(Cc2ccc(C(=O)Nc3nn[nH]n3)o2)c(=O)[nH]c1=S [AR-C118925XX] |  |  |  |  |  |  |  |  |  |  |  | P2Y2-NLRP3 interaction (frequency of PLA+ cells) (P2Y2-NLRP3 interaction): enhanced the P2Y2-NLRP3 interaction |
| Nc1ncnc2c1ncn2[C@@H](C=O)O[C@@H](C=O)COP(=O)(O)OP(=O)(O)OP(=O)(O)O [OxATP, oxidized ATP] | reduced | did not change | did not change |  |  |  | partially affected viability | reduced | partially affected viability | reduced IL-1β release | repressed ACE2 down regulation | frequency of Spike-positive cells (SARS-CoV-2 [7]): reduced the frequency of Spike-positive cells |
| O=c1ccn([C@@H]2O[C@H](COP(=O)(O)OP(=O)(O)OP(=O)(O)O)[C@@H](O)[C@H]2O)c(=O)[nH]1 [UTP, Uridine 5′-triphosphate] | exhibited inhibitory effects on cytopathogenicity | did not change | did not change | strongly blocked the replication of SARS-CoV-2 and/or reduced associated cytopathogenic effects | strongly reduced the amount of RdRp and E mRNA | strongly blocked the replication of SARS-CoV-2 and/or reduced associated cytopathogenic effects |  |  |  |  | repressed ACE2 down regulation | IRF5 expression ([9]; 10 and 100 μM, 50 ng IFNγ 24 hours, FIG. 1C): decrease of IRFS expression |
| O=c1ccn([C@@H]2O[C@H](COP(=O)(O)OP(=O)(O)OP(=O)(O)OP(=O)(O)OC[C@H]3O[C@@H](n4ccc(=O)[nH]c4=O)[C@H](O)[C@@H]3O)[C@@H](O)[C@H]2O)c(=O)[nH]1 [Diquafosol] | exhibited inhibitory effects on cytopathogenicity | did not change | did not change | strongly blocked the replication of SARS-CoV-2 and/or reduced associated cytopathogenic effects | strongly reduced the amount of RdRp and E mRNA | strongly blocked the replication of SARS-CoV-2 and/or reduced associated cytopathogenic effects |  |  |  | impaired IL-1β release | repressed ACE2 down regulation | Bleomycin-induced lung inflammation ([10]; 50 UI bleomycin intratracheal, FIG. 17): abolishes Bleomycin-induced lung inflammation; lung lesions (CT scan) ([10]; day 20, FIG. 17A): reduces lung lesions induced by bleomycin treatment; IFNγ-mediated increase expression of IRF5 ([9]; PMA-THP1 macrophages, FIG. 6P): impaired IFNγ-mediated increase expression of IFN regulatory factor 5 (IRF5); IRF5 expression ([9]; indicated concentrations, 20 ng IFNγ 12 hours, FIG. 1D): confirmed; release of IL-1β in supernatant ([8]; indicated concentrations, 12 hours, LPS+ATP, FIG. 1B): impaired the release of IL-1β |
| O=c1ccn([C@@H]2O[C@H](COP(=O)(O)OP(=O)(O)OP(=O)(O)OP(=O)(O)Oc3ccccc3)[C@@H](O)[C@H]2O)c(=O)[nH]1 [MRS2768] |  |  |  |  |  |  |  |  |  |  |  | release of IL-1β in supernatant ([8]; 50 μM, 1 hour pretreatment, 10 ng/ml LPS 3 hours + 5 mM ATP 6 hours, FIG. 1A): strongly inhibited the release of IL-1β |
| 2′(3′)-O-(4-Benzoylbenzoyl) adenosine 5′-triphosphate [BzATP] |  | did not change | did not change |  | strongly enhanced viral replication |  | did not show a significant impact | increase of intracellular Spike expression levels | did not show a significant impact |  | reduces ACE2 expression levels | entry of SARS-CoV2 into host cells (SARS-CoV-2 [6]; Vero E6): significantly increased the entry of SARS-CoV2 into host cells |
